Tests used:
[1] = Prothrombin time (PT) in plasma after dosing; format: in vivo, human
Description: (§1) The effects of rivaroxaban and clopidogrel on Factor Xa activity, prothrombin time (PT), activated partial thromboplastin time (aPTT) and HepTest were assessed, as described previously. Factor Xa activities above 0.1 IU/mL (the lower limit of quantification) were determined with a precision of 3.8–6.6% and an accuracy of 96–114%. […] When only clopidogrel was administered (treatment A), blood samples were taken after 4, 8, 24 and 48 h. Blood samples were centrifuged to obtain plasma samples, which were then frozen and stored below −15 °C until analysis.

platelet aggregation = assay: ADP-stimulated platelet aggregation (Born method); format: in vivo, human; settings: for platelet aggregation, median relative change from baseline: 4 h after drug administration
Description: A clopidogrel response screening period preceded the study (Figure 1). […] The initial dose of 300 mg clopidogrel was chosen for this study because this loading dose is generally used in patients with ACS [24]. A second dose of 75 mg clopidogrel was selected because this is the standard daily dose recommended by guidelines for use in patients with a variety of relevant conditions, including atrial fibrillation, stroke and ACS [24]. […] This method is based on the turbidimetric determination of cell suspensions. […] Measurement was performed at 650 nm. The individual response of changes of platelet aggregation to baseline was determined using 29 µM ADP in addition to an optimized individual activating regimen using ADP. […] Statistical evaluations were performed with the use of the SAS® software package version 8.2 at the Department of Global Pharmacometrics (Bayer HealthCare AG, Wuppertal, Germany). […] Student’s paired t tests were used to compare treatments for these parameters, and 90% confidence intervals (CIs) for the difference were calculated.

[2] = HepTest in plasma after dosing; format: in vivo, human; settings: combination compared with rivaroxaban alone
Description: as §1

Factor Xa = molecular target: T1, Factor Xa (Homo sapiens, UniProt P00742); assay: Factor Xa activity in plasma after dosing; format: in vivo; settings: for median value of Factor Xa activity: 4 h after administration, rivaroxaban 15 mg
T1 construct: Blood samples were centrifuged to obtain plasma samples, which were then frozen and stored below −15 °C until analysis; from tissue; host or cells: plasma from blood samples of the healthy male study subjects
T1 sequence (P00742 235-488 limits assumed): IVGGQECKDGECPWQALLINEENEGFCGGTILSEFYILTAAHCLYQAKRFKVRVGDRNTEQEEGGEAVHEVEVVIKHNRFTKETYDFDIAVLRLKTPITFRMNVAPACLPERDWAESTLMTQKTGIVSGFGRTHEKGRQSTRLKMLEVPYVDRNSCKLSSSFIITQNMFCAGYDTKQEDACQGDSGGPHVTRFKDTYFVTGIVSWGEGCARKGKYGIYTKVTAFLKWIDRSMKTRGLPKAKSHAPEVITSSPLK
T1 sequence (P00742 41-179 partner limits assumed): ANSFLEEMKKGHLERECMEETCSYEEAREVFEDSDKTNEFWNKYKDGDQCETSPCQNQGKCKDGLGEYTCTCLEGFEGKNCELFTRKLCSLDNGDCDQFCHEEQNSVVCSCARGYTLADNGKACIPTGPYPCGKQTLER
Description: as §1

healthy male subjects [3] = assay: Bleeding time test (Surgicutt incision, forearm); format: in vivo, human; settings: rivaroxaban 15 mg single dose, clopidogrel 300 mg day 1 + 75 mg day 2, combination with rivaroxaban on day 2; for least squares-mean relative change in bleeding time compared with baseline: 4 h after last drug administration
Description: Bleeding time tests were performed in accordance with the protocol reported by the International Committee on Standardization of the Bleeding Time. Bleeding time measurements depend on the method and on who carries out the procedure; therefore, results vary greatly between studies. To reduce variability, one study nurse was specifically trained in the procedure of the test before this study. The same study nurse carried out all measurements at all time points for each subject. […] A sphygmomanometer on the upper arm was inflated to 40 mmHg for 30 seconds before the incision was made and maintained at 40 mmHg until the end of the procedure. The bleeding time incision was made by placing a Surgicutt Adult® (ITC, Edison, NJ, USA) device (used in accordance with the recommendations of the manufacturer, as specified in the package insert) gently against the forearm, perpendicular (vertical) to the elbow crease. […] The bleeding time was measured in seconds as the total duration of blood flow from the wound. […] Statistical evaluations were performed with the use of the SAS® software package version 8.2 at the Department of Global Pharmacometrics (Bayer HealthCare AG, Wuppertal, Germany). […] Student's paired t tests were used to compare treatments for these parameters, and 90% confidence intervals (CIs) for the difference were calculated.

[4] = Activated partial thromboplastin time (aPTT) in plasma after dosing; format: in vivo, human; settings: combination compared with rivaroxaban alone
Description: as §1

[5] = tested on: GPIIb/IIIa, P-selectin and annexin V; assay: Platelet activation markers by flow cytometry; format: in vivo, human; settings: 4 h after drug administration, relative to baseline
Description: To assure uniformity of assays and to minimize sample manipulation, blood samples were mixed gently and processed without delay. Platelet-rich plasma was prepared by slow centrifugation, and platelets were labelled with monoclonal antibodies against GPIIb/IIIa (CD41a), […] (CD62p) and annexin V protein. Samples were analysed using a COULTER® EPICS® XLTM flow cytometer (Beckman Coulter, Inc.; Brea, CA, USA). The average immunofluorescence of the total population or the fraction of activated events was determined and compared with individual control samples before treatment.

healthy male subjects [6] = assay: Safety and tolerability; format: in vivo, human; settings: single dose of 15 mg rivaroxaban
Description: Safety and tolerability were assessed subjectively and objectively. Subjective assessment was obtained by asking the subjects non-leading questions about the occurrence of any adverse events or by spontaneous reporting of adverse events. Adverse events were classified according to their degree of severity. Objective tolerability was evaluated by monitoring cardiovascular parameters including heart rate, blood pressure and ECG parameters. In addition, blood tests, clinical chemistry, urine test and drug screening were part of the objective assessment.

[7] = individually optimized concentration of ADP
[8] = 12 h after administration of 15 mg rivaroxaban

SMILES	effect on PT ([1]; compared with baseline, combination compared with rivaroxaban monotherapy)	platelet aggregation, median relative change from baseline (platelet aggregation; 29 µM ADP)	platelet aggregation, median relative change from baseline (platelet aggregation; [7])	number of subjects identified as clopidogrel responders (more than 40% inhibition of platelet aggregation compared with baseline) (platelet aggregation; of 27 healthy male subjects, single dose of 300 mg clopidogrel, 24 h after administration)	effect on HepTest [2]	median value of Factor Xa activity (Factor Xa) [U/mL]	effect on Factor Xa activity (Factor Xa; combination compared with rivaroxaban alone)	least squares-mean relative change in bleeding time compared with baseline (healthy male subjects [3]) [fold]	effect on aPTT [4]	effect on platelet activation markers [5]	PT, return to values within % of baseline [1, 8] [%]	effect on platelet aggregation (platelet aggregation; optimized ADP or fixed 29 µM ADP)	Factor Xa inhibition, return to values within % of baseline (Factor Xa; [8]) [%]	safety and tolerability (healthy male subjects [6])	bleeding time, overall least squares-means (healthy male subjects [3]; clopidogrel responders) [times baseline]
COC(=O)[C@H](c1ccccc1Cl)N1CCc2sccc2C1 [clopidogrel]	did not change	0.340	0.249	14	did not affect	0.9	no effect	2.0	did not affect	pronounced decrease					
O=C(NC[C@H]1CN(c2ccc(N3CCOCC3=O)cc2)C(=O)O1)c1ccc(Cl)s1 [rivaroxaban]		1.1	0.9			0.57		1.1		no relevant effect	≤ 10	not affected	≤ 10	safe and well tolerated	1.13

From publication PMC3763640, “Effect of Co-Administration of Rivaroxaban and Clopidogrel on Bleeding Time, Pharmacodynamics and Pharmacokinetics: A Phase I Study” (Pharmaceuticals, 2012)
